# Measured values from patent US20230131339A1, “EPI-X4 BASED PEPTIDES AND DERIVATIVES THEREOF” (Universitaet Ulm, priority 2020, published 2023).
# Tests used:
# [1] = system: CXCL12-induced ERK phosphorylation of AML cells; experiment: CXCL12-induced ERK phosphorylation of AML cells; format: cell-based
# Source text: (§1) Experimental data support the efficiency of the claimed peptide derivatives against the diseases mentioned above. At the example of JM #21 (SEQ ID NO.: 23) it could be shown that the peptides counteract growth and migration in vitro and in vivo of Acute Myeloid Leukemia (AML) cells as well as primary patient material and Waldenström's Macroglobulinemia (WM) cells harboring different WHIM-like CXCR4 mutations. This was accompanied by intrinsic changes suppressing oncogenic MAP kinase signaling of AML and WM cells.
# AML cells = experiment: Migration of AML cells along a CXCL12 gradient; format: cell-based
# Source text: as §1
# [2] = system: CXCL12-induced ERK signaling; experiment: ERK/AKT signaling assay in SupT1 cells: ERK phosphorylation; format: cell-based; details: 1 μM
# Method in brief: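 SupT1 cells in 1% FCS medium preincubated 15 min at 37 °C with compound, then stimulated 2 min with CXCL12 (100 ng/ml final). PFA-fixed, methanol-permeabilized cells stained for phospho-ERK1/2 (Tyr204/Tyr187) or phospho-AKT (Ser473) and read by flow cytometry; two or three independent experiments in triplicate.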
# [3] = system: CXCL12 induced migration of T-cells; experiment: Migration assay (transwell, Jurkat cells); format: cell-based
# Procedure: For each peptide, three independent experiments were performed. The error bars refer to the standard deviation.
# Migration assay. Migration assays were performed using 96-well transwell assay plates (Corning Incorporated, Kennebunk, Me., USA) with 5 μm polycarbonate filters. […] Next, 75 μL (0.5×10^5 cells) of Jurkat cells (in assay buffer), together with/without the compounds, were added into the upper chambers. After 4 h at 37° C. (5% CO2), 100 μL of the lower chambers were transferred to a fresh 96 V-well plate and analyzed with Cell-Titer-Glo® assay (Promega, Madison, Wis., USA). The percentage of migrated cells was calculated as described by Balabanian et al. (2005). In order to obtain the relative migration in %, the percentage of migrated cells were normalized to the CXCL12-only control.
# WM cells = experiment: Migration of WM cells along a CXCL12 gradient; format: cell-based; details: with or without S338X mutation
# Source text: as §1
# [4] = Functional stability assay in human plasma; details: human plasma, 2 hours
# Method in brief: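 EPI-X4 derivatives at 20 μM final in pooled human plasma or whole blood (EDTA), incubated at 37 °C with shaking for 2 or 8 h. Residual activity was measured by 12G5-APC antibody competition on CXCR4 and compared with a non-incubated t=0 sample. Blood samples were centrifuged to remove cells before the competition assay.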
# [5] = system: CXCL12-induced ERK phosphorylation of CXCR4 mutant WM cells; experiment: CXCL12-induced ERK phosphorylation of CXCR4 mutant WM cells; format: cell-based
# Source text: as §1
# CD34+ normal cells = experiment: Engraftment of CD34+ normal cells; details: in vivo
# Source text: as §1
# CXCR4 = target: T1, CXCR4 (Homo sapiens, UniProt P61073); experiment: Antibody competition assay (12G5-assay) on SupT1 cells; format: binding
# T1 construct: endogenous in cells; host or cells: SupT1 cells
# Procedure: Second, the activity was tested by an antibody competition assay (FIG. 2). Values determined by the competition assay represent the potency of a compound to compete with an antibody that specifically binds to the binding pocket (ECL2) of CXCR4. […] To the right of the diagrams, an assignment of the curves to the tested peptides is explained. […] Three independent experiments were carried out for each peptide in each assay. The error bars refer to the standard deviation.
# Antibody competition assay. Competition of compounds with antibody binding was performed on SupT1 cells. For that cells were washed in PBS containing 1% FCS and 50,000 cells were then seeded per well in a 96 V-well plate. Buffer was removed and plates were precooled at 4° C. Compounds were diluted in PBS and antibody (clone 12G5, APC labelled) was diluted in PBS containing 1% FCS. The antibody was used at a concentration closed to its determined Kd. 15 μl compounds were then added to the cells and 15 μl antibody immediately afterwards. Plates were incubated at 4° C. in the dark for 2 hours. Afterwards cells were washed twice with PBS containing 1% FCS and fixed with 2% PFA. Antibody binding was analyzed by flow cytometry (FACS CytoFLEX; Beckman Coulter®).
# [6] = Stability assay in human S9 liver fractions; details: 2 hours, with cofactors
# Procedure: Further, the stability of peptides in human S9 liver fractions (in the presence of cofactors) was tested (FIG. 12). […] To simulate and predict hepatic metabolic clearance, peptides were added to human S9 liver fractions. […] For each peptide, three independent experiments were performed.
# Stability assay in human S9 liver fractions. Pooled human liver S9 fractions were obtained from Thermo Fisher Scientific at a total protein concentration of 20 mg/ml. Fractions were stored in 25 μl aliquots at −80° C. For stability experiments, they were diluted to a final concentration of 0.5 mg/ml in Tris buffer. Cofactors (or buffer) were added immediately before start of the experiment (NADPH: 1 mM, UDPGA: 0.5 mM, GSH: 2.5 mM, PAPS: 0.05 mg/ml, Sigma Aldrich). The reaction was started by adding peptides or compounds at a concentration of 20 μM to the mixture and gentle agitation at 37° C. Determination of enzymatic stability was performed as described for plasma.
# [7] = system: primary CXCR4 AML patient samples; experiment: Engraftment of primary AML patient samples in NSG mice; format: in vivo
# Source text: as §1
# T1 sequence (P61073 whole entry): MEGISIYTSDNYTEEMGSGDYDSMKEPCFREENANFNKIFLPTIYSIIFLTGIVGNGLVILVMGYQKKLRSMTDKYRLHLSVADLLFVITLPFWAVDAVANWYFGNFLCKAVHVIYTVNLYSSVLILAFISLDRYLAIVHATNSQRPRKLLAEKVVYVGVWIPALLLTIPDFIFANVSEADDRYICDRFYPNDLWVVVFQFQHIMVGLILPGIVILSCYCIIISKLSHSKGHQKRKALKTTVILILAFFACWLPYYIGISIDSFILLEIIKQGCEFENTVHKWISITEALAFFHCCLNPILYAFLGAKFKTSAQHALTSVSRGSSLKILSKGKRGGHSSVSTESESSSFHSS
smiles,measurement,setting,value
CC[C@H](C)[C@H](N)C(=O)N[C@@H](CC(C)C)C(=O)N[C@@H](CCCNC(=N)N)C(=O)N[C@@H](Cc1c[nH]c2ccccc12)C(=O)N[C@@H](CO)C(=O)N[C@@H](CCCNC(=N)N)C(=O)N[C@@H](CCCCN)C(=O)N[C@@H](CC(C)C)C(=O)N1CCC[C@H]1C(=O)N[C@@H](CS)C(=O)N[C@H](C(=O)N[C@@H](CO)C(=O)O)C(C)C [JM #21],CXCL12-induced ERK phosphorylation of AML cells,[1],reduced CXCL12-induced ERK phosphorylation of AML cells
same,migration of AML cells along a CXCL12 gradient,AML cells,inhibited migration of AML cells along a CXCL12 gradient
same,reduction of CXCL12-induced ERK signaling,[2],60%
same,inhibition of CXCL12 induced migration of T-cells (in words),[3],more effective than WSC02
same,migration of WM cells along a CXCL12 gradient,WM cells,impaired migration of WM cells with or without S338X mutation along a CXCL12 gradient
same,remaining (relative) activity after 2 hours of plasma incubation,[4],completely inactive
same,CXCL12-induced ERK phosphorylation of CXCR4 mutant WM cells,[5],reduced CXCL12-induced ERK phosphorylation of CXCR4 mutant WM cells in a dose-dependent manner
same,engraftment potential of CD34+ normal cells,CD34+ normal cells,no inhibiting effect on the engraftment potential of CD34+ normal cells
same,antibody competition / binding to CXCR4 (in words),CXCR4,more effective antibody competition
same,remaining activity in human S9 liver fractions after 2 hours,[6],readily inactivated by liver enzymes
same,engraftment potential of primary CXCR4 AML patient samples,[7],reduced engraftment potential of primary CXCR4 AML patient samples in NSG mice
